# Patent publication US9102674B2, “Substituted naphthyridine and quinoline compounds as MAO inhibitors” (DART NEUROSCIENCE (CAYMAN) LTD., priority 2013, dated 2015)
# Target: T1, Human recombinant MAO-B (Homo sapiens, UniProt P27338)
# T1 construct: host or cells: insect cells
# T1 sequence (P27338 1-520): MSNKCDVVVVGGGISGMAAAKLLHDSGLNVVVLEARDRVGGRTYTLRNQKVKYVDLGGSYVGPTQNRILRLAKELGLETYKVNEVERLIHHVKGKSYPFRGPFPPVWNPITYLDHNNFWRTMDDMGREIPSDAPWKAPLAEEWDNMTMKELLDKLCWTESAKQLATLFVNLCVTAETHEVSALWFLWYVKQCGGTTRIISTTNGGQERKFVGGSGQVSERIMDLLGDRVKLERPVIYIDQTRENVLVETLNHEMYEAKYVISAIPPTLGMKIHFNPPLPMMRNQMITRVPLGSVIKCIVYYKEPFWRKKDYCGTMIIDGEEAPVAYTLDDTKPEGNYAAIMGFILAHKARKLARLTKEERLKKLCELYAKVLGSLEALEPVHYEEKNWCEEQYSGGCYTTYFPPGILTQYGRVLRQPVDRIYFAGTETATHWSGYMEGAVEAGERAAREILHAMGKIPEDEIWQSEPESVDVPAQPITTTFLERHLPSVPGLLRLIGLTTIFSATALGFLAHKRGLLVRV
# Test: MAO-B enzymatic assay (fluorometric, kynuramine)
# Format: biochemical
# Details: human recombinant MAO-B expressed in insect cells; kynuramine substrate; values given as bins; read-out: MAO-B (pEC50) (converted)
# Method: The MAO enzymatic assay was performed according to the fluorometric method described by Matsumoto and colleagues (Matsumoto et al., Clin. Biochem. 1985, 18, 126-129) with the following modifications. Human recombinant MAO-A and MAO-B expressed in insect cells were used. For both assays, test compound and/or vehicle were preincubated with purified enzyme in phosphate buffer pH 7.4 for 15 minutes at 37° C. The reaction was initiated by addition of […] kynuramine. Following a 60 minute incubation period, the reaction was terminated by the addition of 6 N NaOH. The amount of 4-hydroxyquinoline that formed was determined by spectrofluorimetrically at 325 nm/465 nm.
# Results were converted to percent inhibition, and the EC50 (M) for each reaction was determined using the XLfit program from IDBS (ID Business Solutions Ltd., 2 Occam Court, Surrey Research Park, Guildford, Surrey, GU2 7QB UK). The EC50 represents the concentration of a compound where 50% of its maximal effect is observed. The pEC50 is defined as the negative logarithm of the EC50; a higher pEC50 value therefore corresponds to higher potency in the assay.
# Representative compounds of the invention were evaluated in the MAO-B enzymatic assay. Typically, the compounds of the invention show MAO-B inhibitory properties at a concentration of 0.1 to 10 μM, typically at 5-100%.
# As depicted in the following Table, these inhibitory properties were mirrored by pEC50 values ranging from 5 (meaning 10^−5 M or 10 μM) to greater than 7 (meaning less than 10^−7 M or 0.1 μM).
row,SMILES,EC50
1,"CCOC(=O)c1cnc2cc(OCc3ccc([N+](=O)[O-])cc3)ccc2c1 [Example 11, Ethyl 7-((4-nitrobenzyl)oxy)quinoline-3-carboxylate]",100 to 1000 nM
2,"CC(C)(O)c1cnc2cc(OCc3ccc(F)c(F)c3)cnc2c1 [Example 77, 2-{7-[(3,4-Difluorophenyl)methoxy]-1,5-naphthyridin-3-yl}propan-2-ol]",< 100 nM
3,"CC(C)(O)c1cnc2cc(OCc3ccc(F)cc3)ccc2c1 [Example 27, 2-(7-((4-Fluorobenzyl)oxy)quinolin-3-yl)propan-2-ol]",< 100 nM
4,"CC(C)(O)c1cnc2cc(OCc3cc(F)cc(F)c3)ccc2c1 [Example 29, 2-(7-((3,5-Difluorobenzyl)oxy)quinolin-3-yl)propan-2-ol]",< 100 nM
5,"CC(C)(O)c1cnc2cc(OCCc3cccc(Cl)c3)ccc2c1 [Example 39, 2-(7-(3-Chlorophenethoxy)quinolin-3-yl)propan-2-ol]",100 to 1000 nM
6,"NC(=O)c1cnc2cc(OCc3ccc(F)c(Cl)c3)cnc2c1 [Example 71, 7-[(3-Chloro-4-fluorophenyl)methoxy]-1,5-naphthyridine-3-carboxamide]",< 100 nM
7,"CCOC(=O)c1cnc2cc(OCc3cccc([N+](=O)[O-])c3)ccc2c1 [Example 18, Ethyl 7-((3-nitrobenzyl)oxy)quinoline-3-carboxylate]",< 100 nM
8,"CCOC(=O)c1cnc2cc(OCc3cccc(F)c3)ccc2c1 [Example 4, Ethyl 7-[(3-fluorophenyl)methoxy]quinoline-3-carboxylate]",< 100 nM
9,"CC(C)(F)c1cnc2cc(OCc3ccc(F)cc3)cnc2c1 [Example 75, 3-[(4-Fluorophenyl)methoxy]-7-(2-fluoropropan-2-yl)-1,5-naphthyridine]",< 100 nM
10,"NC(=O)c1cnc2cc(OCc3ccc(F)c(F)c3)cnc2c1 [Example 70, 7-((3,4-Difluorobenzyl)oxy)-1,5-naphthyridine-3-carboxamide]",< 100 nM
11,"Cc1nc2cc(OCc3ccc(F)cc3)ccc2cc1C(C)(C)O [Example 31, 2-(7-((4-Fluorobenzyl)oxy)-2-methylquinolin-3-yl)propan-2-ol]",< 100 nM
12,"CCOC(=O)c1cnc2cc(OCc3ccc(F)c(Cl)c3)ccc2c1 [Example 17, Ethyl 7-((3-chloro-4-fluorobenzyl)oxy)quinoline-3-carboxylate]",< 100 nM
13,"CCOC(=O)c1cnc2cc(OCc3cc(F)cc(Cl)c3)ccc2c1 [Example 19, Ethyl 7-((3-chloro-5-fluorobenzyl)oxy)quinoline-3-carboxylate]",< 100 nM
14,"CC(C)(CO)c1cnc2cc(OCc3cccc(Cl)c3)ccc2c1 [Example 60, 2-(7-((3-Chlorobenzyl)oxy)quinolin-3-yl)-2-methylpropan-1-ol]",< 100 nM
15,"CCOC(=O)c1cnc2cc(OCc3cc(F)c(F)c(F)c3)ccc2c1 [Example 16, Ethyl 7-((3,4,5-trifluorobenzyl)oxy)quinoline-3-carboxylate]",< 100 nM
16,"NC(=O)c1cnc2cc(OCc3cccc(Cl)c3)ccc2c1 [Example 64, 7-((3-Chlorobenzyl)oxy)quinoline-3-carboxamide]",< 100 nM
17,"CC(C)(O)c1cc2ccc(OCc3ccc(F)cc3)cc2[n+]([O-])c1 [Example 66, 7-[(4-Fluorophenyl)methoxy]-3-(2-hydroxypropan-2-yl)quinolin-1-ium-1-olate]",100 to 1000 nM
18,"CC(C)(O)c1cnc2cc(OCc3cccc(Cl)c3)cnc2c1 [Example 79, 2-{7-[(3-Chlorophenyl)methoxy]-1,5-naphthyridin-3-yl}propan-2-ol]",< 100 nM
19,"CCOC(=O)c1cnc2cc(OCc3ccc(F)c(F)c3)ccc2c1 [Example 14, Ethyl 7-((3,4-difluorobenzyl)oxy)quinoline-3-carboxylate]",< 100 nM
20,"CN(C)CCNC(=O)c1cnc2cc(OCc3cccc(Cl)c3)ccc2c1 [Example 49, 7-((3-Chlorobenzyl)oxy)-N-(2-(dimethylamino)ethyl)quinoline-3-carboxamide]",1000 to 10000 nM
21,"CCOC(=O)c1cc2ccc(OCc3cccc(F)c3)cc2nc1C [Example 21, Ethyl 7-((3-fluorobenzyl)oxy)-2-methylquinoline-3-carboxylate]",< 100 nM
22,"CCOC(=O)c1cc2ccc(OCc3cccc(Cl)c3)cc2nc1C [Example 20, Ethyl 7-((3-chlorobenzyl)oxy)-2-methylquinoline-3-carboxylate]",< 100 nM

row,SMILES,EC50
1,"COC(=O)Cc1cnc2cc(OCc3cccc(Cl)c3)ccc2c1 [Example 54, Methyl 2-(7-((3-chlorobenzyl)oxy)quinolin-3-yl)acetate]",< 100 nM
2,"NC(=O)c1cnc2cc(OCc3ccc(F)cc3)cnc2c1 [Example 68, 7-((4-Fluorobenzyl)oxy)-1,5-naphthyridine-3-carboxamide]",< 100 nM
3,"COCc1cnc2cc(OCc3cccc(Cl)c3)ccc2c1 [Example 40, 7-((3-Chlorobenzyl)oxy)-3-(methoxymethyl)quinoline]",< 100 nM
4,"CNC(=O)c1cnc2cc(OCc3cccc(Cl)c3)cnc2c1 [Example 72, 7-[(3-Chlorophenyl)methoxy]-N-methyl-1,5-naphthyridine-3-carboxamide]",< 100 nM
5,"NC(=O)c1cnc2cc(OCc3cccc(Cl)c3)cnc2c1 [Example 69, 7-((3-Chlorobenzyl)oxy)-1,5-naphthyridine-3-carboxamide]",< 100 nM
6,"CCOC(=O)c1cnc2cc(OCc3cccc(Cl)c3)ccc2c1 [Example 3, Ethyl 7-[(3-chlorophenyl)methoxy]quinoline-3-carboxylate]",< 100 nM
7,"N#CCc1cnc2cc(OCc3ccc(F)c(F)c3)cnc2c1 [Example 74, 2-{7-[(3,4-Difluorophenyl)methoxy]-1,5-naphthyridin-3-yl}acetonitrile]",< 100 nM
8,"C[C@H](O)c1cnc2cc(OCc3ccc(F)cc3)ccc2c1 [Example 45, (S)-1-(7-((4-Fluorobenzyl)oxy)quinolin-3-yl)ethanol]",< 100 nM
9,"CCOC(=O)c1cnc2cc(OCc3ccc(F)c(C(F)(F)F)c3)ccc2c1 [Example 12, Ethyl 7-((4-fluoro-3-(trifluoromethyl)benzyl)oxy)quinoline-3-carboxylate]",< 100 nM
10,"CC(C)(O)c1cnc2cc(OCc3ccc(F)c(Cl)c3)cnc2c1 [Example 78, 2-{7-[(3-Chloro-4-fluorophenyl)methoxy]-1,5-naphthyridin-3-yl}propan-2-ol]",< 100 nM
11,"CC(C)(O)c1cnc2cc(OCc3cccc(F)c3)cnc2c1 [Example 76, 2-{7-[(3-Fluorophenyl)methoxy]-1,5-naphthyridin-3-yl}propan-2-ol]",< 100 nM
12,"Cc1nc2cc(OCc3cccc(F)c3)ccc2cc1C(C)(C)O [Example 34, 2-(7-((3-Fluorobenzyl)oxy)-2-methylquinolin-3-yl)propan-2-ol]",< 100 nM
13,"CCOC(=O)c1cnc2cc(OCc3ccc(OC)cc3)ccc2c1 [Example 10, Ethyl 7-((4-methoxybenzyl)oxy)quinoline-3-carboxylate]",100 to 1000 nM
14,"CC(C)(O)c1cnc2cc(OCc3ccc(F)cc3)cnc2c1 [Example 65, 2-{7-[(4-Fluorophenyl)methoxy]-1,5-naphthyridin-3-yl}propan-2-ol]",< 100 nM
15,"CCOC(=O)c1cnc2cc(OCc3ccc(Cl)cc3)ccc2c1 [Example 1, Ethyl 7-[(4-chlorophenyl)methoxy]quinoline-3-carboxylate]",< 100 nM
16,"NC(=O)Cc1cc2ccc(OCc3cccc(Cl)c3)cc2[nH]c1=O [Example 83, 2-(7-((3-Chlorobenzyl)oxy)-2-oxo-1,2-dihydroquinolin-3-yl)acetamide]",< 100 nM
17,"NCc1cnc2cc(OCc3cccc(Cl)c3)ccc2c1 [Example 50, (7-((3-Chlorobenzyl)oxy)quinolin-3-yl)methanamine]",< 100 nM
18,"OCc1cnc2cc(OCc3cc(F)cc(F)c3)ccc2c1 [Example 36, (7-((3,5-Difluorobenzyl)oxy)quinolin-3-yl)methanol]",< 100 nM
19,"CCOC(=O)c1cnc2cc(OCc3cccc(C(F)(F)F)c3)ccc2c1 [Example 5, Ethyl 7-((3-(trifluoromethyl)benzyl)oxy)quinoline-3-carboxylate]",< 100 nM
20,"CC(C)(O)c1cnc2cc(OCCc3cccc(F)c3)ccc2c1 [Example 38, 2-(7-(3-Fluorophenethoxy)quinolin-3-yl)propan-2-ol]",100 to 1000 nM
21,"NC(=O)Cc1cnc2cc(OCc3cccc(F)c3)ccc2c1 [Example 57, 2-(7-((3-Fluorobenzyl)oxy)quinolin-3-yl)acetamide]",< 100 nM
